Reference: ChEMBL document CHEMBL4152195, “Lipid reducing activity and toxicity profiles of a library of polyphenol derivatives” (Eur J Med Chem, 2018)
Activity calls are given as the source filed them. The calls are words filed in the database; no cut-off is given here.

Key:
3T3-L1 [1] = assay: Cytotoxicity against mouse 3T3L1 cells at 50 uM after 48 hrs by sulforhodamine B assay; format: cell-based; details: 3t3-l1, 48 h
Danio rerio [2] = species: Danio rerio; assay: Toxicity in zebra fish larvae at 5 uM after 48 hrs; format: organism-based; details: zebrafish, in vivo
3T3-L1 [3] = assay: Cytotoxicity against mouse 3T3L1 cells at 50 uM after 24 hrs by sulforhodamine B assay; format: cell-based; details: 3t3-l1, 24 h
Danio rerio [4] = species: Danio rerio; assay: Lipid lowering activity in zebrafish embryos at 5 uM by Nile red fat metabolism assay; format: functional, organism-based

Row | SMILES | Activity (3T3-L1 [1]) | Activity (Danio rerio [2]) | Activity (3T3-L1 [3]) | Activity (Danio rerio [4])
1 | O=c1c2ccccc2oc2c(O)c(O)ccc12 [3,4-DIHYDROXYXANTHONE] | 51 to 75% | 0 to 25% | 26 to 50% | Active
2 | O=C(O)Cc1ccc2oc3ccccc3c(=O)c2c1 | 0 to 25% | 0 to 25% | 0 to 25% | 
3 | O=c1c2ccccc2oc2c(O)cccc12 | 0 to 25% | 0 to 25% | 0 to 25% | 
4 | COc1cccc2c(=O)c3ccccc3oc12 | 0 to 25% | 0 to 25% | 26 to 50% | Active
5 | O=c1c2ccccc2oc2cc(O)ccc12 | 0 to 25% | 0 to 25% | 0 to 25% | 
6 | COc1cc(/C=C/C(=O)/C=C/c2ccc(O)c(OC)c2)ccc1O | 0 to 25% | 0 to 25% | 0 to 25% | Active
7 | O=Cc1c(O)ccc2c(=O)c3ccc(O)c(C=O)c3oc12 | 51 to 75% | 0 to 25% | 26 to 50% | 
8 | CCCOc1ccc(NCCN(CC)CC)c2c(=O)c3ccccc3sc12.Cl | 76 to 100% | 76 to 100% | 76 to 100% | 
9 | COc1ccc2c(=O)c3cc(C(=O)N[C@@H](CO)c4ccccc4)ccc3oc2c1 | 0 to 25% | 0 to 25% | 0 to 25% | Active
10 | O=C(COc1ccc2c(=O)c3ccccc3oc2c1)N[C@H](c1ccccc1)[C@@H](O)c1ccccc1 | 0 to 25% | 0 to 25% | 76 to 100% | Active
11 | Cc1c(O)cc2oc3ccccc3c(=O)c2c1O | 0 to 25% | 0 to 25% | 26 to 50% | 
12 | COc1cc(CO)c2c(=O)c3ccccc3oc2c1OC | 26 to 50% | 0 to 25% | 0 to 25% | Active
13 | CCCOc1ccc(N2CCCCC2)c2c(=O)c3ccccc3sc12 | 51 to 75% | 76 to 100% | 26 to 50% | 
14 | COc1c(O)cc2oc3cc(O)c(CC=C(C)C)c(O)c3c(=O)c2c1CC=C(C)C [MANGOSTIN] | 76 to 100% | 76 to 100% | 76 to 100% | 
15 | O=c1c2ccccc2oc2cccc(OCCCCCCOc3cccc4oc5ccccc5c(=O)c34)c12 | 51 to 75% | 0 to 25% | 0 to 25% | 
16 | O=C(O)Cc1cccc2oc3ccccc3c(=O)c12 | 26 to 50% | 0 to 25% | 0 to 25% | 
17 | COc1cc2oc3c(OC)c4c(cc3c(=O)c2cc1OC)OC(C)(C)CC4 | 0 to 25% | 0 to 25% | 0 to 25% | 
18 | CCCOc1ccc(OC)c2c(=O)c3ccccc3sc12 | 51 to 75% | 0 to 25% | 0 to 25% | Active
19 | COc1ccc(Oc2ccccc2C(=O)O)cc1OC | 0 to 25% | 0 to 25% | 0 to 25% | 
20 | O=C(COc1ccc2c(=O)c3ccccc3oc2c1)N[C@@H](c1ccccc1)[C@H](O)c1ccccc1 | 0 to 25% | 0 to 25% | 76 to 100% | 
21 | O=C(O)Cc1ccc2c(=O)c3ccccc3oc2c1 | 0 to 25% | 0 to 25% | 0 to 25% | Active
22 | C#CCOc1ccc(/C=C/C(=O)/C=C/c2ccc(OCC#C)c(OC)c2)cc1OC | 0 to 25% | 0 to 25% | 26 to 50% | Active
23 | O=c1c2ccc(O[C@H]3O[C@H](CO)[C@@H](O)[C@@H](O)[C@@H]3O)cc2oc2cc(O[C@@H]3O[C@@H](CO)[C@H](O)C(O)[C@H]3O)ccc12 (stereo partly drawn) | 26 to 50% | 0 to 25% | 0 to 25% | 
24 | COc1cc([C@H]2Oc3ccc4c(=O)c5ccccc5oc4c3O[C@@H]2CO)ccc1O | 0 to 25% | 0 to 25% | 0 to 25% | 
25 | CCN(CC)c1ccc2c(=O)c3cc4c(c(OC)c3oc2c1)CCC(C)(C)O4 | 51 to 75% | 76 to 100% | 51 to 75% | Active

Row | SMILES | Activity (3T3-L1 [1]) | Activity (Danio rerio [2]) | Activity (3T3-L1 [3]) | Activity (Danio rerio [4])
26 | COc1cc(C(Br)Br)c2c(=O)c3ccccc3oc2c1OC | 51 to 75% | 0 to 25% | 26 to 50% | Active
27 | O=c1c2ccccc2sc2c(O)ccc(Cl)c12 | 51 to 75% | 0 to 25% | 0 to 25% | Active
28 | CC(=O)Oc1ccc(C(=O)c2ccc(OC(C)=O)c(OC(C)=O)c2)cc1OC(C)=O | 51 to 75% | 0 to 25% | 26 to 50% | 
29 | O=c1c2ccccc2oc2ccccc12 [XANTHONE] | 0 to 25% | 0 to 25% | 0 to 25% | 
30 | COc1ccccc1C(=O)c1ccc(OC)c(OC)c1O | 51 to 75% | 0 to 25% | 0 to 25% | 
31 | COc1cc(C=O)c2c(=O)c3ccccc3oc2c1O | 51 to 75% | 0 to 25% | 0 to 25% | Active
32 | CCCOc1ccc(NCCN(CC)CC)c2c(=O)c3ccccc3sc12 | 51 to 100% | 76 to 100% | 0 to 100% | 
33 | COc1cccc2c(=O)c3cc4c(c(O)c3oc12)OC(C)(C)CC4 | 51 to 75% | 0 to 25% | 51 to 75% | 
34 | CC(C)[C@@H](CO)NC(=O)COc1ccc2c(=O)c3ccccc3oc2c1 | 0 to 25% | 0 to 25% | 0 to 25% | 
35 | COc1c2c(cc3c(=O)c4ccc(O)cc4oc13)CCC(C)(C)O2 | 0 to 25% | 0 to 25% | 0 to 25% | 
36 | O=c1c2ccccc2oc2cccc(OCCCCCBr)c12 | 26 to 50% | 0 to 25% | 0 to 25% | Active
37 | C#CCOc1ccc2c(=O)c3ccc(OCC#C)cc3oc2c1 | 0 to 25% | 0 to 25% | 0 to 25% | 
38 | C=CCOc1ccc(/C=C/C(=O)/C=C/c2ccc(OCC=C)c(OC)c2)cc1OC | 0 to 25% | 0 to 25% | 0 to 25% | Active
39 | O=c1c2cc(O)c(O)cc2oc2cc(O)c([C@@H]3O[C@H](CO)[C@@H](O)[C@H](O)[C@H]3O)c(O)c12 [MANGIFERIN] | 0 to 25% | 0 to 25% | 0 to 25% | 
40 | CCCOc1ccc(NNC(=O)c2ccncc2)c2c(=O)c3ccccc3sc12 | 51 to 75% | 51 to 75% | 0 to 25% | 
41 | COC(=O)c1ccccc1Oc1ccc(OC)c(OC)c1 | 51 to 75% | 0 to 25% | 0 to 25% | 
42 | O=Cc1cc(O)c(O)c2oc3ccccc3c(=O)c12 | 51 to 75% | 0 to 25% | 0 to 25% | 
43 | CC(C)[C@H](CO)NC(=O)COc1ccc2c(=O)c3ccccc3oc2c1 | 0 to 25% | 0 to 25% | 0 to 25% | 
44 | COc1cc2c(c3oc4ccccc4c(=O)c13)OC(C)(C)C=C2 | 51 to 75% | 76 to 100% | 51 to 75% | Active
45 | COc1c(O)ccc2c(=O)c3ccccc3oc12 | 0 to 25% | 0 to 25% | 0 to 25% | 
46 | O=c1c2ccc(O)cc2oc2cc(O)ccc12 | 0 to 25% | 0 to 25% | 0 to 25% | 
47 | COc1ccc2c(=O)c3cc(C(=O)N[C@H](CO)c4ccccc4)ccc3oc2c1 | 26 to 50% | 0 to 25% | 51 to 75% | 
48 | CC(C)=CCOc1ccc2oc3ccccc3c(=O)c2c1OCC=C(C)C | 51 to 75% | 0 to 25% | 26 to 50% | 
49 | COc1cc(/C=C/C(=O)/C=C/c2ccc(OCc3cn(CCO[C@H]4O[C@@H](COC(C)=O)[C@H](OC(C)=O)[C@@H](OC(C)=O)[C@@H]4NC(C)=O)nn3)c(OC)c2)ccc1OCc1cn(CCO[C@@H]2O[C@H](COC(C)=O)[C@@H](OC(C)=O)[C@H](OC(C)=O)[C@@H]2NC(C)=O)nn1 | 0 to 25% | 0 to 25% | 0 to 25% | 
